The text below walks through data of paper PMC10408683, “Dual Blockade of EP2 and EP4 Signaling is Required for Optimal Immune Activation and Antitumor Activity Against Prostaglandin-Expressing Tumors” (Cancer Research Communications, 2023).

The IC50 is the concentration at which inhibition is half-maximal.

What all share (assay type): cell-based
One assay deals with T1, EP2 (Homo sapiens, UniProt P43116).
T1 construct: gene PTGER2
The experiment in a line: calcium flux antagonism of PGE2 in HEK293 cells stably expressing EP2 coupled through a promiscuous G protein. (In general: Calcium assays in cells follow changes in intracellular calcium, usually with a dye or a luminescent sensor.)

Assay [1] deals with T2, EP4 (Homo sapiens, UniProt P35408).
T2 construct: gene PTGER4
Description: calcium flux antagonism of PGE2 in HEK293 cells stably expressing EP4 coupled through a promiscuous G protein.

For assay [2], the target named is T2, EP4. The experiment in a line: calcium flux assay in HEK293-based cells stably expressing human EP4.

T2 sequence (P35408 whole entry): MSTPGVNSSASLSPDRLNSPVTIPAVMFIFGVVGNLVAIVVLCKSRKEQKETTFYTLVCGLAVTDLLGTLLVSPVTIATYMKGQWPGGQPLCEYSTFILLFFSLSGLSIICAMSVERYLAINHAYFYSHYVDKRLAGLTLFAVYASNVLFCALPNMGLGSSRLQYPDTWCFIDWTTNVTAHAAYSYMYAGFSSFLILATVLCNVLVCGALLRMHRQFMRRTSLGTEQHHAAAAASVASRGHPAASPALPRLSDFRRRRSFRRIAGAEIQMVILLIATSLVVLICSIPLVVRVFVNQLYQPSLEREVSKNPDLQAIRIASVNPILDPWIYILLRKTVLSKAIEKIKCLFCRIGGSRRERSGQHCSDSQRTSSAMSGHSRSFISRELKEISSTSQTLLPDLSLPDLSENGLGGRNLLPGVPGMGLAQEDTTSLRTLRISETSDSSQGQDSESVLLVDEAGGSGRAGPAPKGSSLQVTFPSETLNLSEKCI
T1 sequence (P43116 whole entry): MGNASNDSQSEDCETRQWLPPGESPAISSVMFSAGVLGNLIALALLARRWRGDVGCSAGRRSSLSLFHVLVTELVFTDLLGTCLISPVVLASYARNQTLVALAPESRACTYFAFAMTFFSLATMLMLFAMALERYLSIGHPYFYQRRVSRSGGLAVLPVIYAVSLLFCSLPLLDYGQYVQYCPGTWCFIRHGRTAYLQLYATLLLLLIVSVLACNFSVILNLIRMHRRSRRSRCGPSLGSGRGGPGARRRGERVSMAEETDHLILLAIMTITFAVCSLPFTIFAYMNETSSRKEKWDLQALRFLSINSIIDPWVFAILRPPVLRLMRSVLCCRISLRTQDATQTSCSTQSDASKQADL

In the case of TPST-1495, the results for the IC50 at EP2 and at EP4 [1] were 17.2 nM and 3.24 nM, respectively.
For the substance TPST-7131, on EP4 [2], the IC50 stood at 0.4 nM.
